{
  "source": "ChEMBL document CHEMBL3046429",
  "about": "“Synthesis, molecular modeling study, preliminary antibacterial, and antitumor evaluation of N-substituted naphthalimides and their structural analogues” (2013)",
  "assay_type_in_all_cases": "functional",
  "key": {"[1]": {"system": "DU-145", "assay": "Growth inhibition of Homo sapiens (human) DU145 cells at 10 uM after 48 hr by coulter counter analysis", "conditions": "DU-145, 48 h, read-out: GI"}, "[2]": {"system": "SK-MEL-5", "assay": "Growth inhibition of Homo sapiens (human) SK-MEL-5 cells at 10 uM after 48 hr by coulter counter analysis", "conditions": "SK-MEL-5, 48 h, read-out: GI"}, "[3]": {"system": "KM12", "assay": "Growth inhibition of Homo sapiens (human) KM12 cells at 10 uM after 48 hr by coulter counter analysis", "conditions": "KM12, 48 h, read-out: GI"}, "[4]": {"system": "BT-549", "assay": "Growth inhibition of Homo sapiens (human) BT549 cells at 10 uM after 48 hr by coulter counter analysis", "conditions": "BT-549, 48 h, read-out: GI"}, "[5]": {"system": "OVCAR-3", "assay": "Growth inhibition of Homo sapiens (human) OVCAR3 cells at 10 uM after 48 hr by coulter counter analysis", "conditions": "OVCAR-3, 48 h, read-out: GI"}, "[6]": {"system": "U-251", "assay": "Growth inhibition of Homo sapiens (human) U251 cells at 10 uM after 48 hr by coulter counter analysis", "conditions": "U-251, 48 h, read-out: GI"}, "[7]": {"system": "HCT-15", "assay": "Growth inhibition of Homo sapiens (human) HCT15 cells at 10 uM after 48 hr by coulter counter analysis", "conditions": "HCT-15, 48 h, read-out: GI"}, "[8]": {"system": "NCI-H460", "assay": "Growth inhibition of Homo sapiens (human) NCI-H460 cells at 10 uM after 48 hr by coulter counter analysis", "conditions": "NCI-H460, 48 h, read-out: GI"}, "[9]": {"system": "MDA-MB-231", "assay": "Growth inhibition of Homo sapiens (human) MDA-MB-231/ATCC cells at 10 uM after 48 hr by coulter counter analysis", "conditions": "MDA-MB-231, 48 h, read-out: GI"}, "[10]": {"system": "SF-295", "assay": "Growth inhibition of Homo sapiens (human) SF295 cells at 10 uM after 48 hr by coulter counter analysis", "conditions": "SF-295, 48 h, read-out: GI"}, "[11]": {"system": "SF-268", "assay": "Growth inhibition of Homo sapiens (human) SF268 cells at 10 uM after 48 hr by coulter counter analysis", "conditions": "SF-268, 48 h, read-out: GI"}, "[12]": {"system": "UO-31", "assay": "Growth inhibition of Homo sapiens (human) UO31 cells at 10 uM after 48 hr by coulter counter analysis", "conditions": "UO-31, 48 h, read-out: GI"}, "[13]": {"system": "NCI-H23", "assay": "Growth inhibition of Homo sapiens (human) NCI-H23 cells at 10 uM after 48 hr by coulter counter analysis", "conditions": "NCI-H23, 48 h, read-out: GI"}, "[14]": {"system": "SK-MEL-28", "assay": "Growth inhibition of Homo sapiens (human) SK-MEL-28 cells at 10 uM after 48 hr by coulter counter analysis", "conditions": "SK-MEL-28, 48 h, read-out: GI"}, "[15]": {"system": "M14", "assay": "Growth inhibition of Homo sapiens (human) M14 cells at 10 uM after 48 hr by coulter counter analysis", "conditions": "M14, 48 h, read-out: GI"}, "[16]": {"system": "OVCAR-8", "assay": "Growth inhibition of Homo sapiens (human) OVCAR8 cells at 10 uM after 48 hr by coulter counter analysis", "conditions": "OVCAR-8, 48 h, read-out: GI"}, "[17]": {"system": "SK-MEL-2", "assay": "Growth inhibition of Homo sapiens (human) SK-MEL-2 cells at 10 uM after 48 hr by coulter counter analysis", "conditions": "SK-MEL-2, 48 h, read-out: GI"}, "[18]": {"system": "HOP-92", "assay": "Growth inhibition of Homo sapiens (human) HOP92 cells at 10 uM after 48 hr by coulter counter analysis", "conditions": "HOP-92, 48 h, read-out: GI"}, "[19]": {"system": "RXF 393", "assay": "Growth inhibition of Homo sapiens (human) RXF393 cells at 10 uM after 48 hr by coulter counter analysis", "conditions": "RXF 393, 48 h, read-out: GI"}, "[20]": {"system": "T47D", "assay": "Growth inhibition of Homo sapiens (human) T47D cells at 10 uM after 48 hr by coulter counter analysis", "conditions": "read-out: GI"}, "[21]": {"system": "OVCAR-4", "assay": "Growth inhibition of Homo sapiens (human) OVCAR4 cells at 10 uM after 48 hr by coulter counter analysis", "conditions": "OVCAR-4, 48 h, read-out: GI"}, "[22]": {"system": "SN12C", "assay": "Growth inhibition of Homo sapiens (human) SN12C cells at 10 uM after 48 hr by coulter counter analysis", "conditions": "read-out: GI"}, "[23]": {"system": "NCI-H226", "assay": "Growth inhibition of Homo sapiens (human) NCI-H226 cells at 10 uM after 48 hr by coulter counter analysis", "conditions": "NCI-H226, 48 h, read-out: GI"}, "[24]": {"system": "OVCAR-5", "assay": "Growth inhibition of Homo sapiens (human) OVCAR5 cells at 10 uM after 48 hr by coulter counter analysis", "conditions": "OVCAR-5, 48 h, read-out: GI"}, "[25]": {"system": "ACHN", "assay": "Growth inhibition of Homo sapiens (human) ACHN cells at 10 uM after 48 hr by coulter counter analysis", "conditions": "read-out: GI"}, "[26]": {"system": "MDA-MB-468", "assay": "Growth inhibition of Homo sapiens (human) MDA-MB-468 cells at 10 uM after 48 hr by coulter counter analysis", "conditions": "MDA-MB-468, 48 h, read-out: GI"}, "[27]": {"system": "PC-3", "assay": "Growth inhibition of Homo sapiens (human) PC3 cells at 10 uM after 48 hr by coulter counter analysis", "conditions": "PC-3, 48 h, read-out: GI"}, "[28]": {"system": "MCF7", "assay": "Growth inhibition of Homo sapiens (human) MCF7 cells at 10 uM after 48 hr by coulter counter analysis", "conditions": "MCF7, 48 h, read-out: GI"}, "[29]": {"system": "COLO 205", "assay": "Growth inhibition of Homo sapiens (human) COLO205 cells at 10 uM after 48 hr by coulter counter analysis", "conditions": "COLO 205, 48 h, read-out: GI"}, "[30]": {"system": "Hs-578T", "assay": "Growth inhibition of Homo sapiens (human) Hs 578T cells at 10 uM after 48 hr by coulter counter analysis", "conditions": "read-out: GI"}, "[31]": {"system": "NCI-H522", "assay": "Growth inhibition of Homo sapiens (human) NCI-H522 cells at 10 uM after 48 hr by coulter counter analysis", "conditions": "NCI-H522, 48 h, read-out: GI"}, "[32]": {"system": "Staphylococcus aureus", "assay": "Antibacterial activity against Staphylococcus aureus assessed as growth inhibition after 24 hr by two fold serial dilution method"}, "[33]": {"system": "RPMI-8226", "assay": "Growth inhibition of Homo sapiens (human) RPMI8226 cells at 10 uM after 48 hr by coulter counter analysis", "conditions": "RPMI-8226, 48 h, read-out: GI"}, "[34]": {"system": "SNB-75", "assay": "Growth inhibition of Homo sapiens (human) SNB75 cells at 10 uM after 48 hr by coulter counter analysis", "conditions": "SNB-75, 48 h, read-out: GI"}, "[35]": {"system": "CCRF-CEM", "assay": "Growth inhibition of Homo sapiens (human) CCRF-CEM cells at 10 uM after 48 hr by coulter counter analysis", "conditions": "read-out: GI"}, "[36]": {"system": "K562", "assay": "Growth inhibition of Homo sapiens (human) K562 cells at 10 uM after 48 hr by coulter counter analysis", "conditions": "K562, 48 h, read-out: GI"}},
  "data": [
    {"smiles": "O=C1c2nccnc2C(=O)N1c1c(Cl)cc(Cl)cc1Cl", "values": [
      {"measurement": "inhibition of growth at 10 µM", "setting": "[1]", "result": 18.6, "unit": "%"},
      {"measurement": "inhibition of growth at 10 µM", "setting": "[2]", "result": -6.79, "unit": "%"},
      {"measurement": "inhibition of growth at 10 µM", "setting": "[3]", "result": 10.3, "unit": "%"},
      {"measurement": "inhibition of growth at 10 µM", "setting": "[4]", "result": 4.48, "unit": "%"},
      {"measurement": "inhibition of growth at 10 µM", "setting": "[5]", "result": -15.4, "unit": "%"},
      {"measurement": "inhibition of growth at 10 µM", "setting": "[6]", "result": -7.03, "unit": "%"},
      {"measurement": "inhibition of growth at 10 µM", "setting": "[7]", "result": 7.09, "unit": "%"},
      {"measurement": "inhibition of growth at 10 µM", "setting": "[8]", "result": -7.91, "unit": "%"},
      {"measurement": "inhibition of growth at 10 µM", "setting": "[9]", "result": 7.23, "unit": "%"},
      {"measurement": "inhibition of growth at 10 µM", "setting": "[10]", "result": -2.42, "unit": "%"},
      {"measurement": "inhibition of growth at 10 µM", "setting": "[11]", "result": 7.64, "unit": "%"},
      {"measurement": "inhibition of growth at 10 µM", "setting": "[12]", "result": 72.9, "unit": "%"},
      {"measurement": "inhibition of growth at 10 µM", "setting": "[13]", "result": 0.61, "unit": "%"},
      {"measurement": "inhibition of growth at 10 µM", "setting": "[14]", "result": -3.36, "unit": "%"},
      {"measurement": "inhibition of growth at 10 µM", "setting": "[15]", "result": 3.32, "unit": "%"},
      {"measurement": "inhibition of growth at 10 µM", "setting": "[16]", "result": 11, "unit": "%"},
      {"measurement": "inhibition of growth at 10 µM", "setting": "[17]", "result": -0.16, "unit": "%"},
      {"measurement": "inhibition of growth at 10 µM", "setting": "[18]", "result": 57.1, "unit": "%"},
      {"measurement": "inhibition of growth at 10 µM", "setting": "[19]", "result": -25.2, "unit": "%"},
      {"measurement": "inhibition of growth at 10 µM", "setting": "[20]", "result": 5.37, "unit": "%"},
      {"measurement": "inhibition of growth at 10 µM", "setting": "[21]", "result": -0.64, "unit": "%"},
      {"measurement": "inhibition of growth at 10 µM", "setting": "[22]", "result": 22.7, "unit": "%"},
      {"measurement": "inhibition of growth at 10 µM", "setting": "[23]", "result": 9.41, "unit": "%"},
      {"measurement": "inhibition of growth at 10 µM", "setting": "[24]", "result": -1.7, "unit": "%"},
      {"measurement": "inhibition of growth at 10 µM", "setting": "[25]", "result": -0.27, "unit": "%"},
      {"measurement": "inhibition of growth at 10 µM", "setting": "[26]", "result": 17.8, "unit": "%"},
      {"measurement": "inhibition of growth at 10 µM", "setting": "[27]", "result": 22.7, "unit": "%"},
      {"measurement": "inhibition of growth at 10 µM", "setting": "[28]", "result": 3.64, "unit": "%"},
      {"measurement": "inhibition of growth at 10 µM", "setting": "[29]", "result": 8.27, "unit": "%"},
      {"measurement": "inhibition of growth at 10 µM", "setting": "[30]", "result": 15.3, "unit": "%"},
      {"measurement": "inhibition of growth at 10 µM", "setting": "[31]", "result": 14.9, "unit": "%"},
      {"measurement": "-logMIC", "setting": "[32]", "result": 4.22},
      {"measurement": "MIC", "setting": "[32]; Staphylococcus aureus, 24 h", "result": 20, "unit": "µg/mL"},
      {"measurement": "inhibition of growth at 10 µM", "setting": "[33]", "result": 4.32, "unit": "%"},
      {"measurement": "inhibition of growth at 10 µM", "setting": "[34]", "result": 47.4, "unit": "%"},
      {"measurement": "inhibition of growth at 10 µM", "setting": "[35]", "result": 3.38, "unit": "%"},
      {"measurement": "inhibition of growth at 10 µM", "setting": "[36]", "result": 10.1, "unit": "%"}
    ]}
  ]
}
